Measurements published in patent publication US7618816B2, “Metal-binding therapeutic peptides” (Ontherix, Inc., priority 2005, dated 2009).
Where no end group is shown, it is not given here.

Legend:
SR = test: Uptake of SA-HRP::MBD peptide complexes; format: cell-based
Procedure: (§1) HEK293 kidney cell line and 54 tumor cell lines obtained from the National Cancer Institute and passaged in RPMI1640 cell culture medium supplemented with 10% fetal bovine serum and 10 uM FeCl2. Uptake of streptavidin-horseradish peroxidase (SA-HRP) conjugate and of various SA-HRP::MBD peptide complexes was determined as described (Singh et al. J Biol Chem. 279 (1):477-87 [2004]) using biotinylated MBD9 ([…]) (SEQ ID NO: 10) and MBD21 ([…]) (SEQ ID NO: 4) peptides and SA-HRP. Nuclear and cytoplasmic localization of these proteins was also determined in each case. […] In order to establish the underlying molecular mechanism for this variability, we cross-linked MBD21 peptide to the following cell surface markers at 4 degrees Celsius as previously described (Singh et al. J Biol Chem. 279 (1):477-87 [2004]): transferrin receptor 1, caveolin 1, PCNA, integrins alpha v, 2, 5 and 6, integrins beta 1, 3 and 5. […] Based on the strength of these correlations, it was possible to derive crude predictive formulae for MBD-mediated uptake based on the rate of cross-linking to surface markers. Such predictive formulas could form the basis for a diagnostic procedure to select appropriate targets for MBD-based therapies.

K562 = test: Uptake of SA-HRP::MBD peptide complexes; format: cell-based
Procedure: as §1

PAN 02 = test: Uptake of SA-HRP::MBD peptide complexes; format: cell-based
Procedure: as §1

HEK 293 = test: Uptake of SA-HRP::MBD peptide complexes; format: cell-based
Procedure: as §1

435 = test: Uptake of SA-HRP::MBD peptide complexes; format: cell-based
Procedure: as §1

CCRF-SB = test: Uptake of SA-HRP::MBD peptide complexes; format: cell-based
Procedure: as §1

COLON 26 = test: Uptake of SA-HRP::MBD peptide complexes; format: cell-based
Procedure: as §1

54 tumor cell lines = test: Uptake of SA-HRP::MBD peptide complexes, median of the survey; format: cell-based; settings: median over tumor cell lines
Procedure: as §1

KM12 = test: Uptake of SA-HRP::MBD peptide complexes; format: cell-based, human
Procedure: as §1

OVCAR-8 = test: Uptake of SA-HRP::MBD peptide complexes; format: cell-based, human
Procedure: as §1

231 = test: Uptake of SA-HRP::MBD peptide complexes; format: cell-based, human
Procedure: as §1

EKVX = test: Uptake of SA-HRP::MBD peptide complexes; format: cell-based, human
Procedure: as §1

HS 913T = test: Uptake of SA-HRP::MBD peptide complexes; format: cell-based, human
Procedure: as §1

HOP 62 = test: Uptake of SA-HRP::MBD peptide complexes; format: cell-based, human
Procedure: as §1

SK-0V-3 = test: Uptake of SA-HRP::MBD peptide complexes; format: cell-based, human
Procedure: as §1

IGR-OV1 = test: Uptake of SA-HRP::MBD peptide complexes; format: cell-based, human
Procedure: as §1

DU-145 = test: Uptake of SA-HRP::MBD peptide complexes; format: cell-based, human
Procedure: as §1

BT-549 = test: Uptake of SA-HRP::MBD peptide complexes; format: cell-based, human
Procedure: as §1

COLO 205 = test: Uptake of SA-HRP::MBD peptide complexes; format: cell-based, human
Procedure: as §1

OVCAR-5 = test: Uptake of SA-HRP::MBD peptide complexes; format: cell-based, human
Procedure: as §1

HOP 18 = test: Uptake of SA-HRP::MBD peptide complexes; format: cell-based, human
Procedure: as §1

MX-1 = test: Uptake of SA-HRP::MBD peptide complexes; format: cell-based, human
Procedure: as §1

MOLT4 = test: Uptake of SA-HRP::MBD peptide complexes; format: cell-based, human
Procedure: as §1

NCI-H226 = test: Uptake of SA-HRP::MBD peptide complexes; format: cell-based, human
Procedure: as §1

CCRF-CEM = test: Uptake of SA-HRP::MBD peptide complexes; format: cell-based, human
Procedure: as §1

HCT-15 = test: Uptake of SA-HRP::MBD peptide complexes; format: cell-based, human
Procedure: as §1

CAKI-1 = test: Uptake of SA-HRP::MBD peptide complexes; format: cell-based, human
Procedure: as §1

CHA-59 = test: Uptake of SA-HRP::MBD peptide complexes; format: cell-based, human
Procedure: as §1

WIDR = test: Uptake of SA-HRP::MBD peptide complexes; format: cell-based, human
Procedure: as §1

RPMI 8226 = test: Uptake of SA-HRP::MBD peptide complexes; format: cell-based, human
Procedure: as §1

A704 = test: Uptake of SA-HRP::MBD peptide complexes; format: cell-based, human
Procedure: as §1

NCI-H522 = test: Uptake of SA-HRP::MBD peptide complexes; format: cell-based, human
Procedure: as §1

## KKGFYKKKQCRPSKGRKRGFCWAVDKYG (cysteine pairing not given here; also: biotinylated (position not given here), complexed with SA-HRP) [MBD21]
SR; cytoplasmic
  SA-HRP uptake, Cyt.: 20.9 ng
SR; nuclear
  SA-HRP uptake, Nuc.: 0.0 ng
K562; K562, cytoplasmic
  SA-HRP uptake, Cyt.: 2.8 ng
K562; K562, nuclear
  SA-HRP uptake, Nuc.: 1.1 ng
PAN 02; PAN 02, cytoplasmic
  SA-HRP uptake, Cyt.: 9.3 ng
PAN 02; PAN 02, nuclear
  SA-HRP uptake, Nuc.: 2.2 ng
HEK 293; HEK 293, cytoplasmic
  SA-HRP uptake, Cyt.: 13.6 ng
HEK 293; HEK 293, nuclear
  SA-HRP uptake, Nuc.: 4.5 ng
435; 435, cytoplasmic
  SA-HRP uptake, Cyt.: 6.1 ng
435; 435, nuclear
  SA-HRP uptake, Nuc.: 1.3 ng
CCRF-SB; cytoplasmic
  SA-HRP uptake, Cyt.: 1.7 ng
CCRF-SB; nuclear
  SA-HRP uptake, Nuc.: 0.1 ng
COLON 26; COLON 26, cytoplasmic
  SA-HRP uptake, Cyt.: 8.9 ng
COLON 26; COLON 26, nuclear
  SA-HRP uptake, Nuc.: 2.2 ng
54 tumor cell lines; cytoplasmic
  SA-HRP uptake, Cyt. (ng), Median: 2.8 ng
54 tumor cell lines; nuclear
  SA-HRP uptake, Nuc. (ng), Median: 1.0 ng
KM12; KM12, cytoplasmic
  SA-HRP uptake, Cyt.: 2.1 ng
KM12; KM12, nuclear
  SA-HRP uptake, Nuc.: 0.7 ng
OVCAR-8; OVCAR-8, cytoplasmic
  SA-HRP uptake, Cyt.: 6.1 ng
OVCAR-8; OVCAR-8, nuclear
  SA-HRP uptake, Nuc.: 13.1 ng
231; 231, cytoplasmic
  SA-HRP uptake, Cyt.: 3.4 ng
231; 231, nuclear
  SA-HRP uptake, Nuc.: 1.1 ng
EKVX; cytoplasmic
  SA-HRP uptake, Cyt.: 7.7 ng
EKVX; nuclear
  SA-HRP uptake, Nuc.: 7.3 ng
HS 913T; cytoplasmic
  SA-HRP uptake, Cyt.: 2.1 ng
HS 913T; nuclear
  SA-HRP uptake, Nuc.: 1.8 ng
HOP 62; HOP 62, cytoplasmic
  SA-HRP uptake, Cyt.: 4.1 ng
HOP 62; HOP 62, nuclear
  SA-HRP uptake, Nuc.: 0.2 ng
SK-0V-3; SK-0V-3, cytoplasmic
  SA-HRP uptake, Cyt.: <0.04 ng
SK-0V-3; SK-0V-3, nuclear
  SA-HRP uptake, Nuc.: <0.04 ng
IGR-OV1; IGR-OV1, cytoplasmic
  SA-HRP uptake, Cyt.: 1.9 ng
IGR-OV1; IGR-OV1, nuclear
  SA-HRP uptake, Nuc.: 1.0 ng
DU-145; DU-145, cytoplasmic
  SA-HRP uptake, Cyt.: 25.7 ng
DU-145; DU-145, nuclear
  SA-HRP uptake, Nuc.: 3.3 ng
BT-549; BT-549, cytoplasmic
  SA-HRP uptake, Cyt.: 4.8 ng
BT-549; BT-549, nuclear
  SA-HRP uptake, Nuc.: 3.3 ng
COLO 205; COLO 205, cytoplasmic
  SA-HRP uptake, Cyt.: 2.1 ng
COLO 205; COLO 205, nuclear
  SA-HRP uptake, Nuc.: 0.9 ng
OVCAR-5; OVCAR-5, cytoplasmic
  SA-HRP uptake, Cyt.: 1.3 ng
OVCAR-5; OVCAR-5, nuclear
  SA-HRP uptake, Nuc.: 1.5 ng
HOP 18; HOP 18, cytoplasmic
  SA-HRP uptake, Cyt.: 10.3 ng
HOP 18; HOP 18, nuclear
  SA-HRP uptake, Nuc.: 3.1 ng
MX-1; MX-1, cytoplasmic
  SA-HRP uptake, Cyt.: 8.5 ng
MX-1; MX-1, nuclear
  SA-HRP uptake, Nuc.: 3.8 ng
MOLT4; MOLT4, cytoplasmic
  SA-HRP uptake, Cyt.: 7.3 ng
MOLT4; MOLT4, nuclear
  SA-HRP uptake, Nuc.: 0.0 ng
NCI-H226; NCI-H226, cytoplasmic
  SA-HRP uptake, Cyt.: 0.7 ng
NCI-H226; NCI-H226, nuclear
  SA-HRP uptake, Nuc.: 0.9 ng
CCRF-CEM; cytoplasmic
  SA-HRP uptake, Cyt.: 41.3 ng
CCRF-CEM; nuclear
  SA-HRP uptake, Nuc.: 2.0 ng
HCT-15; HCT-15, cytoplasmic
  SA-HRP uptake, Cyt.: 2.7 ng
HCT-15; HCT-15, nuclear
  SA-HRP uptake, Nuc.: 0.7 ng
CAKI-1; CAKI-1, cytoplasmic
  SA-HRP uptake, Cyt.: 2.8 ng
CAKI-1; CAKI-1, nuclear
  SA-HRP uptake, Nuc.: 1.0 ng
CHA-59; CHA-59, cytoplasmic
  SA-HRP uptake, Cyt.: 8.2 ng
CHA-59; CHA-59, nuclear
  SA-HRP uptake, Nuc.: 2.1 ng
WIDR; cytoplasmic
  SA-HRP uptake, Cyt.: 2.8 ng
WIDR; nuclear
  SA-HRP uptake, Nuc.: 1.0 ng
RPMI 8226; RPMI 8226, cytoplasmic
  SA-HRP uptake, Cyt.: 3.6 ng
RPMI 8226; RPMI 8226, nuclear
  SA-HRP uptake, Nuc.: 0.0 ng
A704; A704, cytoplasmic
  SA-HRP uptake, Cyt.: 4.5 ng
A704; A704, nuclear
  SA-HRP uptake, Nuc.: 1.2 ng
NCI-H522; NCI-H522, cytoplasmic
  SA-HRP uptake, Cyt.: 5.1 ng
NCI-H522; NCI-H522, nuclear
  SA-HRP uptake, Nuc.: 1.7 ng
